Values quoted from earlier work in US20060099249A1, “Modified release formulations of at least one form of tramadol” (priority 2002, published 2006).
Like-named read-outs stand apart in the source and are kept apart here.

Assays:
[1] = test system: osteoarthritis; settings: rofecoxib 12.5 mg
[2] = test system: osteoarthritis; settings: 12 weeks, celecoxib 100 mg BID, Naproxen 500 mg BID
[3] = Study No. 033, Ibuprofen 2400 mg, over 6-weeks
[4] = Study No. 040, Ibuprofen 2400 mg, over 6-weeks
[5] = Study No. 058, Nabumetone 1500 mg, over 6-weeks

Row | Compound | WOMAC pain walking on a flat surface, mean difference vs placebo [1, 3] | WOMAC pain walking on a flat surface, mean difference vs placebo [1, 4] | WOMAC pain walking on a flat surface, mean difference vs placebo [1, 5] | Arthritis Pain VAS change from baseline, LS mean difference vs placebo ([2]; Study No. 020) | Arthritis Pain VAS change from baseline, LS mean difference vs placebo ([2]; Study No. 054) | WOMAC pain walking on a flat surface, mean difference vs placebo ([1]; Study No. 029, LS mean change from baseline over 6-weeks)
1 | CC(C)Cc1ccc(C(C)C(=O)O)cc1 (stereo not drawn) [Ibuprofen] | 13.5 mm | 14.6 mm | – | – | – | –
2 | COc1ccc2cc(CCC(C)=O)ccc2c1 [Nabumetone] | – | – | 10 mm | – | – | –
3 | COc1ccc2cc([C@H](C)C(=O)O)ccc2c1 [Naproxen] | – | – | – | 7.6 mm | 11.2 mm | –
4 | CS(=O)(=O)c1ccc(C2=C(c3ccccc3)C(=O)OC2)cc1 [rofecoxib, Rofecoxib] | 12.4 mm | 15.4 mm | 9.0 mm | – | – | 14.3 mm
